Measured values reported in patent US20070049538A1, “METHODS FOR USING CUCURBITACIN COMPOUNDS” (SOUTH DAKOTA STATE UNIVERSITY, priority 2005, published 2007).
Entries after “also recorded” stand apart in the source; their conditions may differ.

Key:
[1] = Chromatographic hydrophobicity index (CHI) by RP-HPLC in buffered methanol; format: physicochemical; conditions: buffered methanol pH 7.0, Econosil C18 150 mm, Eq. (4)
[2] = tested on: HSC-T6 cells; assay: Cytotoxicity on HSC-T6 cells (experiment 3); format: cell-based, rat; conditions: read-out: Experiment 3 IC50 (T)
Text: Cytotoxicity of all cucurbitacin analogs was additionally measured in experiment 3 (Table 8).

[3] = tested on: HSC-T6 cells; assay: Serum-driven HSC-T6 proliferation, experiment 1 (4 h challenge, two days drug-free growth); format: cell-based, rat; conditions: for EC50: HSC-T6, 4 h challenge, then two days drug-free media
[4] = in vivo; cited from earlier work
[5] = tested on: HSC-T6 cells; assay: Serum-driven HSC-T6 proliferation, experiment 2 (24 h, starved/quiescent cells); format: cell-based, rat; conditions: HSC-T6, 24 h, starved (quiescent) cells; read-out: Experiment 2 EC50
Description: To overcome this problem, the amount of incubation time was increased to 24 h, and cucurbitacin activity measured on starved (Exp. 2) or proliferative (Exp. 3) cells (Table 8). Cells turned quiescent when serum was not supplemented for one day (Exp. 2). Activity of a few compounds was monitored on quiescent cells, and their activity compared to the ones measured on proliferating cells (Exp. 3).
We established several experimental conditions such as 4 hours of incubation time with cucurbitacin, and 2 day cell incubation with fresh media after challenging with cucurbitacin (Exp. 1). Other experiments involved addition of cucurbitacin for 24 hours over starved cells (Exp. 2) vs. proliferating cells (Exp. 3), and one day incubation of cells with fresh media after challenge. The 4 hour incubation period with cucurbitacin triggered anti-proliferation effect. This effect, however, was hindered by a second cycle of cell proliferation during the two-day cell growth period (see silybin, E and I glucosides, and for I-nPr). […] Because of that, the challenge time was increased to 24 hours (Exp. 2 and 3).
In experiment 3, only 40% of the cells divided. The ratio of EC50 values for exp. 2 and exp. 3 varied between 3.6 and 12.7. This may indicate differential cytotoxicity of silybin and cucurbitacin analogs over quiescent and active stellate cells. In other words, compounds show higher anti-proliferative activity on active cells than on quiescent cells.

[6] = target: hyaluronidase (Bos taurus, UniProt Q2YDK3); assay: Anti-Hyaluronidase Assay; format: biochemical; conditions: up to 71.68 mM
Text: Cucurbitacin anti-inflammatory activity was monitored by the Anti-Hyaluronidase Assay (Facino et al., Il Farmaco 48: 1447-1461, 1993 and Linker, A., Hyaluronidase. In: Methods of enzymatic analysis. Vol. 4., Bergmeyer, H. U. (Editor), Verlag Chemie GmbH, Berlin, 256-262, 1984). This assay was validated using the standard compound phenylbutazone.

[7] = DPPH* Stable Free Radical Scavenging Assay; conditions: at 50 μM
Description: Cucurbitacin antioxidant activity was studied first by the DPPH* Stable Free Radical Scavenging Assay (Cotelle et al., Free radical Biology & Medicine 20(1): 35-43, 1996). Experimental conditions were optimized on the standard compound ascorbic acid. Data indicated 30% activity at 50 μM concentration, and 100% activity at 100 μM for ascorbic acid. While the original assay required 10 minutes incubation time for the reaction to occur, this time was increased up to 30 minutes in case cucurbitacin were reacting slower than other reagents.

[8] = ABTS*+ Radical Cation Decolorization Assay; conditions: at 50 μM, 100 μM and 1.8 mM, up to 2 hours
Description: Cucurbitacin B activity was monitored at 50 μM, 100 μM, and 1.8 mM. The time interval was expanded up to 2 hours in case cucurbitacin B was reacting slowly.

Sequence of hyaluronidase (Q2YDK3 entry or part of it): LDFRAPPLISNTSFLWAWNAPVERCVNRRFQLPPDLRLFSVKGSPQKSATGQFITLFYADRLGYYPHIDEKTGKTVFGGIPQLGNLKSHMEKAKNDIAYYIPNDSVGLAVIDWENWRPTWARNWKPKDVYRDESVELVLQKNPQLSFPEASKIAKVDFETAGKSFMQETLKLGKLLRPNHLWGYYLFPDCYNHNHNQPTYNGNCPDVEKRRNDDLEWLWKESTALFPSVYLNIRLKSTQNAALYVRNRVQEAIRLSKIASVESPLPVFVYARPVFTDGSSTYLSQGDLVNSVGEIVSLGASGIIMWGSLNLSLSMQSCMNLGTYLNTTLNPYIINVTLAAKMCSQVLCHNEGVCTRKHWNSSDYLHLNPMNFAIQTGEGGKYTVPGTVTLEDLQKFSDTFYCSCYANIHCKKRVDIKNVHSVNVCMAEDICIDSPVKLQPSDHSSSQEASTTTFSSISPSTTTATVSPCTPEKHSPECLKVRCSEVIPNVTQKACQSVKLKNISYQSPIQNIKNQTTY

Compound: Cucurbitacin E-Me ether
- CHIMeOH [1]: 71.55
- IC50 [2]: 2.8 µM
- EC50 [3]: 3.05 µM

Compound: cucurbitacin E
- CHIMeOH [1]: 69.6!^
- EC50 [3]: 0.86 µM
- protective and preventive activity [4]: significantly reducing serum enzymes level, steatosis, inflammation, and experimental cholestasis

Compound: CC(=O)OC(C)(C)/C=C/C(=O)[C@](C)(O)[C@H]1[C@H](O)C[C@@]2(C)[C@@H]3CC=C4[C@@H](C=C(O[C@@H]5O[C@H](CO)[C@@H](O)[C@H](O)[C@H]5O)C(=O)C4(C)C)[C@]3(C)C(=O)C[C@]12C [E-Gluc, cucurbitacin E glucoside]
- EC50 [5]: 20 µM
- CHIMeOH [1]: 62.27
- IC50 [2]: 102 µM
- anti-proliferation activity ([3]; Experiment 1, FIG. 7, 150 μM): about 38%
- Experiment 1 anti-proliferation activity ([3]; measured at 100 μM): ˜46%^a^

Compound: CC(=O)OC(C)(C)/C=C/C(=O)[C@](C)(O)[C@H]1[C@H](O)C[C@@]2(C)[C@@H]3CC=C4[C@H](C[C@H](O)C(=O)C4(C)C)[C@]3(C)C(=O)C[C@]12C [B, cucurbitacin B]
- CHIMeOH [1]: 67.33
- anti-hyaluronidase activity [6]: no activity; also recorded: did not demonstrate anti-hyaluronidase activity
- IC50 [2]: 4.4 µM
- EC50 [3]: 1.18 µM
- DPPH activity [7]: did not indicate any activity
- protective and preventive activity [4]: significantly reducing serum enzymes level, steatosis, inflammation, and experimental cholestasis
- ABTS activity [8]: No activity was observed
